In patent US10633407B2, “14-membered ketolides and methods of their preparation and use” (President and Fellows of Harvard College, priority 2014, dated 2020):
In brackets after ≈: the same amount, converted by molar mass.

Columns and labels:
Assay in all cases: CLSI broth dilution MIC determination
Assay type in all cases: cell-based
E. coli ATCC 25922 = details: Escherichia coli, ATCC25922, E. coli ATCC 25922 (MP-4); read-out: MIC
Text: (§1) MIC data was collected for the novel macrolides that this platform has produced against over 21 unique strains of B. subtilis, E. coli, S. aureus, S. pneumoniae, and H. influenzae, including several multidrug-resistant strains, with a special focus on macrolide resistant mechanisms (vide supra). Azithromycin (Azithro) and Solithromycin (Solithro) were included as a control macrolides in many cases. CLSI standard procedures for broth dilution MIC determination were used. […] These genotypes can be constitutive or inducible.

[1] = tested on: E. coli MP-532 clinical-cErmB; details: Escherichia coli
Text: as §1

E. coli MP-541 clinical = details: Escherichia coli, MP541CLINICAL, read-out: MIC
Text: as §1

[2] = tested on: E. coli MP-9 ATCC25922:tolC; details: Escherichia coli, ATCC25922
Text: as §1

[3] = tested on: S. aureus (MRSA) MP-513 ST-228 cErm (Clinical-cErm); details: Staphylococcus aureus, read-out: MIC
Text: as §1

S. aureus ATCC 29213 = details: Staphylococcus aureus, ATCC29213; S. aureus ATCC 29213 (MP-12); read-out: MIC
Text: as §1

[4] = tested on: S. aureus MP-17 ATCCBAA-977 (BAA 977 iErm); details: Staphylococcus aureus; S. aureus MP-17, ATCCBAA-977, iErm; read-out: MIC
Text: as §1

S. aureus MRSA: USA300 = details: Staphylococcus aureus; S. aureus MRSA: USA300 (MP-549, msr(a)); read-out: MIC
Text: as §1

A. baumannii ATCC 19606 = details: Acinetobacter baumannii, ATCC19606; A. baumannii ATCC 19606 (MP-15); read-out: MIC
K. pneumoniae ATCC 10031 = details: Klebsiella pneumoniae, ATCC10031, K. pneumoniae ATCC 10031 (MP-14); read-out: MIC
P. aeruginosa ATCC 27853 = details: Pseudomonas aeruginosa, ATCC27853; P. aeruginosa ATCC 27853 (MP-3); read-out: MIC
P. aeruginosa MP-7 PAO1 = details: Pseudomonas aeruginosa, read-out: MIC
[5] = tested on: P. aeruginosa MP-8 PAO1:mex (mex-oprM-deletion); details: Pseudomonas aeruginosa, PAO1
[6] = tested on: K. pneumoniae MP-548 clinical; details: Klebsiella pneumoniae, MP548CLINICAL, read-out: MIC
[7] = tested on: K. pneumoniae MP-546 Clinical-MDR; details: Klebsiella pneumoniae, read-out: MIC
[8] = tested on: A. baumannii MP-577 Clinical-AZT low; details: Acinetobacter baumannii, read-out: MIC
[9] = tested on: A. baumannii MP-576 Clinical-MDR; details: Acinetobacter baumannii, read-out: MIC

| Structure (SMILES) | MIC (E. coli ATCC 25922) | MIC [1] | MIC (E. coli MP-541 clinical) | MIC [2] | MIC [3] | MIC (S. aureus ATCC 29213) | MIC [4] | MIC (S. aureus MRSA: USA300) | MIC (A. baumannii ATCC 19606) | MIC (K. pneumoniae ATCC 10031) | MIC (P. aeruginosa ATCC 27853) | MIC (P. aeruginosa MP-7 PAO1) | MIC [5] | MIC [6] | MIC [7] | MIC [8] | MIC [9] |
| --- | --- | --- | --- | --- | --- | --- | --- | --- | --- | --- | --- | --- | --- | --- | --- | --- | --- |
| CC[C@H]1OC(=O)[C@@](C)(F)C(=O)[C@H](C)[C@@H](O[C@@H]2OC(C)CC(N(C)C)C2O)[C@](C)(OC)C[C@@H](C)C(=O)[C@H](C)[C@H]2N(CC#CCn3cc(-c4cnc(N)s4)nn3)C(=O)O[C@]12C (stereo partly drawn) [FSM-100633] | 8 µg/mL (≈ 9.43 µM) | > 64 µg/mL | 8 µg/mL (≈ 9.43 µM) | 1 µg/mL (≈ 1.18 µM) | 64 µg/mL (≈ 75.5 µM) | 0.125 µg/mL (≈ 0.147 µM) | 0.125 µg/mL (≈ 0.147 µM) | 0.125 µg/mL (≈ 0.147 µM) | 4 µg/mL (≈ 4.72 µM) | 2 µg/mL (≈ 2.36 µM) | 32 µg/mL (≈ 37.7 µM) | 32 µg/mL (≈ 37.7 µM) | 4 µg/mL (≈ 4.72 µM) | 32 µg/mL (≈ 37.7 µM) | 64 µg/mL (≈ 75.5 µM) | 16 µg/mL (≈ 18.9 µM) | > 64 µg/mL |
| CC[C@H]1OC(=O)[C@H](C)C(=O)[C@H](C)[C@@H](O[C@@H]2OC(C)CC(N(C)C)C2O)[C@](C)(OC)C[C@@H](C)C(=O)[C@H](C)[C@H]2N(CC#CCn3cc(-c4cccnn4)nn3)C(=O)O[C@]12C (stereo partly drawn) [FSM-130216] | 32 µg/mL (≈ 39.5 µM) | > 64 µg/mL | 64 µg/mL (≈ 79 µM) | 4 µg/mL (≈ 4.94 µM) | > 64 µg/mL | 0.25 µg/mL (≈ 0.309 µM) | 0.25 µg/mL (≈ 0.309 µM) | 0.5 µg/mL (≈ 0.617 µM) | 16 µg/mL (≈ 19.8 µM) | 4 µg/mL (≈ 4.94 µM) | > 64 µg/mL | > 64 µg/mL | 16 µg/mL (≈ 19.8 µM) | > 64 µg/mL | > 64 µg/mL | 64 µg/mL (≈ 79 µM) | > 64 µg/mL |
| CC[C@H]1OC(=O)[C@@](C)(F)C(=O)[C@H](C)[C@@H](O[C@@H]2OC(C)CC(N(C)C)C2O)[C@](C)(OC)C[C@@H](C)C(=O)[C@H](C)[C@H]2N(CC#CCn3cc(-c4cccnn4)nn3)C(=O)O[C@]12C (stereo partly drawn) [FSM-130217] | 32 µg/mL (≈ 38.6 µM) | > 64 µg/mL | 32 µg/mL (≈ 38.6 µM) | 4 µg/mL (≈ 4.83 µM) | > 64 µg/mL | 0.25 µg/mL (≈ 0.302 µM) | 0.25 µg/mL (≈ 0.302 µM) | 0.25 µg/mL (≈ 0.302 µM) | 16 µg/mL (≈ 19.3 µM) | 8 µg/mL (≈ 9.66 µM) | > 64 µg/mL | > 64 µg/mL | 16 µg/mL (≈ 19.3 µM) | > 64 µg/mL | > 64 µg/mL | 32 µg/mL (≈ 38.6 µM) | > 64 µg/mL |
| CC[C@H]1OC(=O)[C@H](C)C(=O)[C@H](C)[C@@H](O[C@@H]2OC(C)CC(N(C)C)C2O)[C@](C)(OC)C[C@@H](C)C(=O)[C@H](C)[C@H]2N(NCCCn3nc4ccccc4n3)C(=O)O[C@]12C (stereo partly drawn) [FSM-140132] | 16 µg/mL (≈ 20.3 µM) | > 64 µg/mL | 32 µg/mL (≈ 40.7 µM) | 2 µg/mL (≈ 2.54 µM) | > 64 µg/mL | 0.25 µg/mL (≈ 0.318 µM) | 0.25 µg/mL (≈ 0.318 µM) | 0.5 µg/mL (≈ 0.635 µM) | 32 µg/mL (≈ 40.7 µM) | 4 µg/mL (≈ 5.08 µM) | > 64 µg/mL | > 64 µg/mL | 8 µg/mL (≈ 10.2 µM) | 64 µg/mL (≈ 81.3 µM) | > 64 µg/mL | 32 µg/mL (≈ 40.7 µM) | > 64 µg/mL |
| CC[C@H]1OC(=O)[C@H](C)C(=O)[C@H](C)[C@@H](O[C@@H]2OC(C)CC(N(C)C)C2O)[C@](C)(OC)C[C@@H](C)C(=O)[C@H](C)[C@H]2N(NCCCn3nnc4ccccc43)C(=O)O[C@]12C (stereo partly drawn) [FSM-140133] | 16 µg/mL (≈ 20.3 µM) | > 64 µg/mL | 16 µg/mL (≈ 20.3 µM) | 4 µg/mL (≈ 5.08 µM) | > 64 µg/mL | 0.25 µg/mL (≈ 0.318 µM) | 0.25 µg/mL (≈ 0.318 µM) | 0.5 µg/mL (≈ 0.635 µM) | 8 µg/mL (≈ 10.2 µM) | 4 µg/mL (≈ 5.08 µM) | 64 µg/mL (≈ 81.3 µM) | 64 µg/mL (≈ 81.3 µM) | 8 µg/mL (≈ 10.2 µM) | 64 µg/mL (≈ 81.3 µM) | > 64 µg/mL | 64 µg/mL (≈ 81.3 µM) | > 64 µg/mL |
| CC[C@H]1OC(=O)[C@H](C)C(=O)[C@H](C)[C@@H](O[C@@H]2OC(C)CC(N(C)C)C2O)[C@](C)(OC)C[C@@H](C)C(=O)[C@H](C)[C@H]2N(NC/C=C/c3ccnc4ccccc34)C(=O)O[C@]12C (stereo partly drawn) [FSM-140135] | > 64 µg/mL | > 64 µg/mL | > 64 µg/mL | 16 µg/mL (≈ 20.1 µM) | > 64 µg/mL | 2 µg/mL (≈ 2.52 µM) | 2 µg/mL (≈ 2.52 µM) | 2 µg/mL (≈ 2.52 µM) | > 64 µg/mL | 8 µg/mL (≈ 10.1 µM) | > 64 µg/mL | > 64 µg/mL | 32 µg/mL (≈ 40.3 µM) | > 64 µg/mL | > 64 µg/mL | > 64 µg/mL | > 64 µg/mL |
